Source: DBAASP
In brackets after ≈: the same amount, converted by molar mass. Several values for one entry are separate records, joined by “and”; a condition that tells them apart may be missing. Identical values can stand only once. One block for each compound: values may come before it.

How the values were obtained:
Assay in all cases: ≥ marks a high value that may be exact or a test limit, other limits are often not marked, values filed in µg/mL are converted to µM
Staphylococcus aureus = test system: Staphylococcus aureus
Citrobacter sp. = test system: Citrobacter sp.
[1] = test system: Acinetobacter baumannii ATCC 15308
Enterobacter cloacae = test system: Enterobacter cloacae
Klebsiella pneumoniae = test system: Klebsiella pneumoniae
[2] = test system: Staphylococcus aureus ATCC 25923
[3] = test system: Pseudomonas aeruginosa ATCC 15442
[4] = test system: Escherichia coli ATCC 25922
Streptococcus pneumoniae = test system: Streptococcus pneumoniae
Klebsiella pneumoniae 2 = test system: Klebsiella pneumoniae 2
Klebsiella pneumoniae 1 = test system: Klebsiella pneumoniae 1
Pseudomonas aeruginosa 1 = test system: Pseudomonas aeruginosa 1
[5] = test system: Staphylococcus aureus ATCC 33591
[6] = test system: Pseudomonas aeruginosa PAO1
Escherichia coli C600 = test system: Escherichia coli C600
[7] = test system: Staphylococcus aureus 209P
Escherichia coli = test system: Escherichia coli
Escherichia coli 1 = test system: Escherichia coli 1
Pseudomonas aeruginosa 2 = test system: Pseudomonas aeruginosa 2
Candida glabrata = test system: Candida glabrata
Proteus vulgaris = test system: Proteus vulgaris
Candida albicans 1 = test system: Candida albicans 1
Vibrio cholerae = test system: Vibrio cholerae
[8] = test system: Acinetobacter baumannii 1
Proteus mirabilis = test system: Proteus mirabilis
Aspicilia cinerea = test system: Aspicilia cinerea
[9] = test system: Staphylococcus epidermidis
Acinetobacter baumannii = test system: Acinetobacter baumannii
Enterococcus faecium = test system: Enterococcus faecium
Vibrio anguillarum = test system: Vibrio anguillarum
Vibrio parahaemolyticus = test system: Vibrio parahaemolyticus
[10] = test system: Vibrio parahaemolyticus ATCC 17802
Staphylococcus aureus 1 = test system: Staphylococcus aureus 1
Bacillus subtilis = test system: Bacillus subtilis
Pseudomonas aeruginosa = test system: Pseudomonas aeruginosa
Vibrio splendidus = test system: Vibrio splendidus
[11] = test system: Pseudomonas aeruginosa ATCC 27853
Bacillus cereus = test system: Bacillus cereus
Candida albicans = test system: Candida albicans
[12] = test system: Staphylococcus aureus USA 300
[13] = test system: Staphylococcus aureus USA 300 LAC
[14] = test system: Klebsiella pneumoniae ATCC 13883
[15] = test system: Acinetobacter baumannii ATCC 19606
[16] = test system: Candida parapsilosis ATCC 22019
Listeria ivanovii = test system: Listeria ivanovii
[17] = test system: Enterococcus faecalis ATCC 29212
[18] = test system: Candida albicans ATCC 90028
[19] = test system: Staphylococcus aureus ST1065
Saccharomyces cerevisiae = test system: Saccharomyces cerevisiae
[20] = test system: Streptococcus pyogenes ATCC 19615
Escherichia coli ML-35p = test system: Escherichia coli ML-35p
[21] = test system: Salmonella enterica subsp. enterica serovar Enteritidis

Compound: NC(=O)[C@H](CCCN=C(N)N)NC(=O)[C@H](CCCN=C(N)N)NC(=O)[C@H](Cc1c[nH]c2ccccc12)NC(=O)[C@@H]1CCCN1C(=O)[C@H](Cc1c[nH]c2ccccc12)NC(=O)[C@H](CCCN=C(N)N)NC(=O)[C@@H]1CCCN1C(=O)[C@H](Cc1c[nH]c2ccccc12)NC(=O)[C@H](CCCN=C(N)N)NC(=O)[C@H](Cc1c[nH]c2ccccc12)NC(=O)[C@@H]1CCCN1C(=O)[C@H](CCCN=C(N)N)NC(=O)[C@@H](N)CCCN=C(N)N [RRPWRWPRWPWRR]
MIC (Staphylococcus aureus): 31.4 µM (≈ 62.5 µg/mL)
MIC (Citrobacter sp.): ≥ 126 µM
MIC [1]: ≥ 126 µM
MIC (Enterobacter cloacae): ≥ 126 µM
MIC (Klebsiella pneumoniae): > 126 µM
MIC [2]: 15.7 µM (≈ 31.2 µg/mL)
MIC [3]: 15.7 µM (≈ 31.2 µg/mL)
MIC [4]: 15.7 µM (≈ 31.2 µg/mL)
MIC (Streptococcus pneumoniae): 31.4 µM (≈ 62.5 µg/mL)

Compound: CC(C)[C@@H]1NC(=O)CNC(=O)[C@H](CCCN=C(N)N)NC(=O)[C@H](C(C)C)NC(=O)[C@@H]2CSSC[C@H](NC1=O)C(=O)N[C@@H](Cc1ccc(O)cc1)C(=O)N[C@@H](CCCN=C(N)N)C(=O)N[C@@H](CCCN=C(N)N)C(=O)N[C@H](C(=O)N[C@@H](Cc1c[nH]c3ccccc13)C(=O)O)CSSC[C@H](NC(=O)[C@H](Cc1c[nH]c3ccccc13)NC(=O)[C@@H](N)CCCN=C(N)N)C(=O)N[C@@H](C(C)C)C(=O)N[C@@H](Cc1ccc(O)cc1)C(=O)N[C@@H](C)C(=O)N2 [RWCVYACVRGVCYRRCW]
MIC (Klebsiella pneumoniae 2): 2 µM and 4 µM
MIC (Klebsiella pneumoniae 1): 1 µM and 2 µM
MIC (Pseudomonas aeruginosa 1): 2 µM (≈ 4.35 µg/mL)
MIC [5]: 0.12 µM (≈ 0.261 µg/mL)
MIC [6]: 3.13 µM (≈ 6.81 µg/mL)
MIC (Escherichia coli C600): 1.56 µM (≈ 3.39 µg/mL)
MIC [7]: 3.13 µM (≈ 6.81 µg/mL)
MIC (Escherichia coli): 0.5 µM and 1 µM
MIC (Escherichia coli 1): 1 µM and 0.5 µM
MIC (Pseudomonas aeruginosa 2): 2 µM (≈ 4.35 µg/mL)

Compound: CC[C@H](C)[C@H](NC(=O)CNC(=O)[C@H](CO)NC(=O)[C@H](C)NC(=O)[C@@H](N)Cc1ccccc1)C(=O)N[C@@H](C)C(=O)NCC(=O)N[C@@H](CCSC)C(=O)N[C@@H](C)C(=O)NCC(=O)N[C@@H](CCCCN)C(=O)N[C@@H](CC(C)C)C(=O)N[C@@H](Cc1ccccc1)C(N)=O [FASGIAGMAGKLF]
MIC [15]: > 200 µM
MIC [16]: ≥ 200 µM
MIC (Listeria ivanovii): ≥ 200 µM
MIC [17]: > 200 µM
MIC [18]: ≥ 200 µM
MIC [19]: ≥ 200 µM
MIC (Saccharomyces cerevisiae): ≥ 200 µM
MIC [2]: > 200 µM
MIC [14]: ≥ 200 µM
MIC [20]: ≥ 200 µM
MIC [11]: > 200 µM
MIC [4]: > 200 µM
MIC (Escherichia coli ML-35p): ≥ 200 µM
MIC [21]: ≥ 200 µM

Continued, in another order:

MIC (Candida glabrata): 14.7 µM (≈ 37.5 µg/mL)
MIC (Proteus vulgaris): ≥ 78.2 µM
MIC (Candida albicans 1): 5.19 µM (≈ 13.3 µg/mL)
MIC [8]: 7.33 µM (≈ 18.8 µg/mL)
MIC (Proteus mirabilis): 1.83 µM (≈ 4.69 µg/mL)
MIC (Staphylococcus aureus): 14.7 µM (≈ 37.5 µg/mL)
MIC (Klebsiella pneumoniae 1): ≥ 78.2 µM
MIC (Aspicilia cinerea): 7.33 µM (≈ 18.8 µg/mL)
MIC [9]: 7.33 µM (≈ 18.8 µg/mL)
MIC (Acinetobacter baumannii): ≥ 78.2 µM
MIC (Enterococcus faecium): 7.33 µM (≈ 18.8 µg/mL)
MIC (Vibrio anguillarum): 1.83 µM (≈ 4.69 µg/mL)
MIC (Klebsiella pneumoniae): 5.19 µM (≈ 13.3 µg/mL)
MIC (Staphylococcus aureus 1): 5.19 µM (≈ 13.3 µg/mL)
MIC (Bacillus subtilis): 0.919 µM (≈ 2.35 µg/mL)
MIC [2]: 14.7 µM (≈ 37.5 µg/mL)
MIC (Pseudomonas aeruginosa): 5.19 µM (≈ 13.3 µg/mL)
MIC (Vibrio splendidus): 1.83 µM (≈ 4.69 µg/mL)
MIC [11]: 7.33 µM (≈ 18.8 µg/mL)
MIC (Escherichia coli 1): 7.33 µM (≈ 18.8 µg/mL)
MIC (Bacillus cereus): 7.33 µM (≈ 18.8 µg/mL)
MIC (Candida albicans): 14.7 µM (≈ 37.5 µg/mL)
Compound: CC[C@H](C)[C@H](NC(=O)[C@H](CCCCN)NC(=O)[C@H](CC(C)C)NC(=O)[C@H](C)NC(=O)CNC(=O)[C@H](CC(N)=O)NC(=O)[C@H](CC(C)C)NC(=O)[C@@H](NC(=O)[C@H](CCCCN)NC(=O)[C@H](CCCCN)NC(=O)[C@H](Cc1c[nH]c2ccccc12)NC(=O)[C@H](Cc1ccccc1)NC(=O)[C@H](CCCCN)NC(=O)[C@H](CCCN=C(N)N)NC(=O)[C@H](CCCN=C(N)N)NC(=O)[C@@H](N)[C@@H](C)O)C(C)C)C(=O)N[C@@H](C)C(=O)N1CCC[C@H]1C(=O)N[C@@H](Cc1ccccc1)C(=O)N[C@@H](CC(C)C)C(=O)N[C@@H](CC(C)C)C(=O)NCC(=O)O [TRRKFWKKVLNGALKIAPFLLG]
MIC (Vibrio cholerae): 7.33 µM (≈ 18.8 µg/mL)
MIC (Vibrio parahaemolyticus): 1.83 µM (≈ 4.69 µg/mL)
MIC [10]: 1.83 µM (≈ 4.69 µg/mL)

MIC [12]: 12.5 µM (≈ 15.9 µg/mL)
MIC [13]: 12.5 µM (≈ 15.9 µg/mL)
MIC [6]: 12.5 µM (≈ 15.9 µg/mL)
MIC [14]: 25 µM (≈ 31.8 µg/mL)
MIC [4]: 25 µM (≈ 31.8 µg/mL)
Compound: CC[C@H](C)[C@H](NC(=O)[C@H](CCCN=C(N)N)NC(=O)[C@H](CCCN=C(N)N)NC(=O)[C@H](CC(C)C)NC(=O)[C@H](Cc1c[nH]c2ccccc12)NC(=O)[C@H](Cc1c[nH]c2ccccc12)NC(=O)[C@@H](N)Cc1c[nH]c2ccccc12)C(=O)N[C@@H](CCCN=C(N)N)C(N)=O [WWWLRRIR]
